Experimental data from patent US6589751B2, “Immonological detection of the homocystamide adduct and a thiolactone immunoassay for endogeneous homocysteine” (MCW Research Foundation, priority 1997, dated 2003).
Entries after “also recorded” stand apart in the source; their conditions may differ.

Columns and labels:
Assay type in all cases: binding, rabbit
[1] = test system: purified polyclonal antibody directed against the homocystamide adduct; test: competition ELISA with purified polyclonal antibody (1:300), solid phase homocystamide-LDL adduct; conditions: for IC50 values, D,L- versus L-homocystamide-BSA compared: competitor 0-500 μg/ml, P>0.05, data not shown
Protocol: Solid phase ELISA techniques for antibody characterization. Solid phase indirect antibody capture techniques were used in all assays and have been described elsewhere (10, 34). Briefly, 96-well plates were initially coated with homocystamide-LDL adduct (100 μl, 10 μg/ml). For antibody titer determinations, the antisera were diluted at concentrations as indicated in the “Results” section. We defined antibody titers as the inverse of the greatest serum dilution in which a significant difference (p<0.05) between the percentage antibody bound from the antiserum and the pre-immune serum was observed. Immunoglobulin classes were determined using goat-anti-rabbit-μ-chain-specific, -heavy chain specific, and -heavy and light chain specific secondary antibodies that were linked to horseradish peroxidase. In order to determine antibody specificity, competition experiments were employed, using a limiting dilution (1:300) of purified antibody. Horseradish peroxidase-labeled goat-anti rabbit (heavy and light chain-specific) was used as a […], and the reaction was quenched by the addition of H2SO4 (100 μl, 1.8 M). The absorbance was measured at 450 nm in a 96-well plate reader.
Purification of antiserum. Polyclonal rabbit-anti-homocystamide antiserum was obtained following the 4th immunization of New Zealand White rabbits with homologous homocystamide-LDL adduct (0.5 mg in Freund's adjuvant) as described previously (34). A saturated solution of ammonium sulfate was added dropwise to the antiserum while stirring until the solution was 25% saturated with ammonium sulfate. This mixture was incubated overnight at 4° C. The mixture was centrifuged, and pellet was discarded. Ammonium sulfate was added to the supernatant while stirring until the final concentration of the solution was 50% ammonium sulfate. This mixture was incubated overnight at 4° C. The mixture was centrifuged, and the supernatant was discarded. The pellet was brought up in and dialyzed against Tris (10 mM, pH 7.5). […]

[2] = test system: antiserum to homocystamide-LDL adduct; test: competition ELISA with antiserum (1:700), solid phase homocystamide-LDL adduct; conditions: competitor against solid phase homocystamide-LDL adduct
Protocol: Antiserum obtained as described in FIG. 1 was added to Millipore 96-well plates containing pre-adsorbed homocystamide-LDL adduct (100 μl, 10 μg/ml) at a limiting dilution (1:700) in the indicated concentrations of competitors (●, homocystamide-LDL adduct, ∘, native LDL, □, acetylated LDL, ▴, methylated LDL, ▪, methylated LDL treated with homocysteine thiolactone). Following a 12 hour incubation, antibody bound was quantified as described in FIG. 2. […] This experiment is representative of 3 independent experiments. (n=3 for each data point. Data points are the mean±SEM).
Antiserum obtained as described in FIG. 1 was added to Millipore 96-well plates containing pre-adsorbed homocystamide-LDL adduct (100 μl, 10 μg/ml) at a limiting dilution (1:700) in the indicated concentrations of competitors (●, Cu^2+-oxidized homocystamide-LDL adduct, ▪, Cu^2+-oxidized LDL, ▴, homocysteine). Following a 12 hour incubation, antibody bound was quantified as described in FIG. 1. […] This experiment is representative of 3 independent experiments. (n=3 for each data point. Data points are the mean±SEM).
Antiserum obtained as described in FIG. 1 was added to Millipore 96-well plates containing pre-adsorbed homocystamide-LDL adduct (100 μl, 10 μg/ml) at a limiting dilution (1:700) in the indicated concentrations of competitors (▴, ●, ▪, homocystamide-LDL, -HDL, and -lipoprotein-deficient serum proteins isolated from homocysteine thiolactone-treated plasma, and freshly drawn plasma without homocysteine thiolactone treatment, Δ). Following a 12 hour incubation, antibody bound following a 2-hour incubation, antibody bound was quantified as described in FIG. 1 using horseradish peroxidase-linked goat-anti-rabbit IgG (heavy and light chains). […] (n=4 for each data point. Data points are the mean±SEM). […] (This experiment is representative of 3 independent experiments. Data points are the mean of duplicate measurements.)
Briefly, 96-well plates were initially coated with homocystamide-LDL adduct (100 μl, 10 μg/ml). […] Immunoglobulin classes were determined using goat-anti-rabbit-μ-chain-specific, -heavy chain specific, and -heavy and light chain specific secondary antibodies that were linked to horseradish peroxidase. In order to determine antibody specificity, competition experiments were employed, using a limiting dilution (1:300) of purified antibody. Horseradish peroxidase-labeled goat-anti rabbit (heavy and light chain-specific) was used as a substrate, and the reaction was quenched by the addition of H2SO4 (100 μl, 1.8 M). The absorbance was measured at 450 nm in a 96-well plate reader.
Homocysteine thiolactone-treated LDL (10 μg/ml) was coated onto 96-well plates.

[3] = target: purified polyclonal anti-homocystamide adduct antibody; test: competition ELISA with purified polyclonal antibody (1:400), plates coated with homocystamide-BSA adduct
Protocol: Microtiter plate preparation. BSA (10 mg/ml in 1M borate, pH 8.4) was incubated for 6 hours at 25° C. in the presence of homocysteine thiolactone (50 mM). Following incubation, excess homocysteine thiolactone was removed by passing the sample down a column pre-equilibrated with NaCO3 (100 mM, pH 9.6). Homocystamide-BSA adduct was diluted to 5 μg/ml in NaCO3 (100 mM, pH 9.6), and 200 μl/well was added to polystyrene microtiter plates (11). These plates were incubated overnight at 4° C., rinsed in PBS, and either used immediately or covered and stored in PBS for future use.
Preparation of a standard curve. In order to prepare a standard curve of known homocysteine concentrations, the indicated concentrations of homocysteine were incubated in the presence of HCl (6N) and heated at 60° C. for 2 hours. […] These solutions were used in a competitive antibody binding assays in parallel with “test solutions” that were analyzed for homocysteine concentrations.
Immunoassay. […] The reactions were quenched after 30 minutes by the addition of H2SO4 (1.8N) and read at 450 nm. […]
Determination of antibody specificity. Antibody specificity for homocystamide-BSA adduct was determined. […] Results of antibody binding are expressed as B/B0, in which B is the % antibody binding in the presence of competitor, and B0 is the % antibody binding in the absence of competitor. […]

[4] = test system: antiserum to homocystamide-LDL adduct; test: solid phase ELISA serum dilution curve on homocystamide adducts of other proteins; conditions: protein coated on solid phase
Protocol: Solid phase ELISA techniques for antibody characterization. Solid phase indirect antibody capture techniques were used in all assays and have been described elsewhere (10, 34). Briefly, 96-well plates were initially coated with homocystamide-LDL adduct (100 μl, 10 μg/ml). For antibody titer determinations, the antisera were diluted at concentrations as indicated in the “Results” section. We defined antibody titers as the inverse of the greatest serum dilution in which a significant difference (p<0.05) between the percentage antibody bound from the antiserum and the pre-immune serum was observed. Immunoglobulin classes were determined using goat-anti-rabbit-μ-chain-specific, -heavy chain specific, and -heavy and light chain specific secondary antibodies that were linked to horseradish peroxidase. In order to determine antibody specificity, competition experiments were employed, using a limiting dilution (1:300) of purified antibody. […] The absorbance was measured at 450 nm in a 96-well plate reader.
We sought to determine whether or not homocystamide adducts of other proteins could also be used in order to measure antibody titers. […] This curve resembled the serum dilution curve obtained in FIG. 4, as the antiserum recognized both homocystamide-BSA and homocystamide-hemoglogin adduct, indicated by antiserum dilution-dependent increase in the absorbance at 450 nm.

IC50 values, D,L- versus L-homocystamide-BSA compared [1] | Compound | competition for binding to the antiserum (dose-dependent decrease in %B/B0) [2] | further results
not significantly different | L-homocystamide-BSA: BSA incubated with L-homocysteine thiolactone |  | 
 | N[C@@H](CCSSCC[C@H](N)C(=O)O)C(=O)O [homocystine] | neither BSA nor homocysteine disulfide (homocystine) were recognized; also recorded: Neither homocysteine, homocystine (homocysteine disulfide), nor Cu^2+-oxidized LDL competed for binding | competition / recognition by purified polyclonal antibody ([1]; purified polyclonal antibody 1:300, solid phase homocystamide-LDL): much less affinity than protein-homocystamide adducts; also recorded: recognized, however with much lower affinity
 | N[C@@H](CCS)C(=O)O [homocysteine] | Neither homocysteine, homocystine (homocysteine disulfide), nor Cu^2+-oxidized LDL competed for binding | competition for binding to the antiserum (dose-dependent decrease in %B/B0) ([2]; listed as free homocysteine): did not compete for binding
not significantly different | D,L-homocystamide-BSA: BSA incubated with D,L Homocysteine thiolactone |  | 
 | homocystamide-BSA adduct: BSA treated with homocysteine thiolactone; printed as BSA in the IC50 sentence of b114 |  | IC50, inhibition of antibody binding (B/B0) [3]: approximately 200 μg/ml; recognition by the antiserum (dilution-dependent increase in absorbance at 450 nm) [4]: recognized
